The values below come from US9006450B2 (Boehringer Ingelheim International GmbH, priority 2010, dated 2015).

The target of this assay is T1, human ACC2 (Homo sapiens, UniProt O00763).
T1 construct: made in house; host or cells: insect cells (baculoviral expression system)
T1 sequence (O00763 129-2458 limits assumed): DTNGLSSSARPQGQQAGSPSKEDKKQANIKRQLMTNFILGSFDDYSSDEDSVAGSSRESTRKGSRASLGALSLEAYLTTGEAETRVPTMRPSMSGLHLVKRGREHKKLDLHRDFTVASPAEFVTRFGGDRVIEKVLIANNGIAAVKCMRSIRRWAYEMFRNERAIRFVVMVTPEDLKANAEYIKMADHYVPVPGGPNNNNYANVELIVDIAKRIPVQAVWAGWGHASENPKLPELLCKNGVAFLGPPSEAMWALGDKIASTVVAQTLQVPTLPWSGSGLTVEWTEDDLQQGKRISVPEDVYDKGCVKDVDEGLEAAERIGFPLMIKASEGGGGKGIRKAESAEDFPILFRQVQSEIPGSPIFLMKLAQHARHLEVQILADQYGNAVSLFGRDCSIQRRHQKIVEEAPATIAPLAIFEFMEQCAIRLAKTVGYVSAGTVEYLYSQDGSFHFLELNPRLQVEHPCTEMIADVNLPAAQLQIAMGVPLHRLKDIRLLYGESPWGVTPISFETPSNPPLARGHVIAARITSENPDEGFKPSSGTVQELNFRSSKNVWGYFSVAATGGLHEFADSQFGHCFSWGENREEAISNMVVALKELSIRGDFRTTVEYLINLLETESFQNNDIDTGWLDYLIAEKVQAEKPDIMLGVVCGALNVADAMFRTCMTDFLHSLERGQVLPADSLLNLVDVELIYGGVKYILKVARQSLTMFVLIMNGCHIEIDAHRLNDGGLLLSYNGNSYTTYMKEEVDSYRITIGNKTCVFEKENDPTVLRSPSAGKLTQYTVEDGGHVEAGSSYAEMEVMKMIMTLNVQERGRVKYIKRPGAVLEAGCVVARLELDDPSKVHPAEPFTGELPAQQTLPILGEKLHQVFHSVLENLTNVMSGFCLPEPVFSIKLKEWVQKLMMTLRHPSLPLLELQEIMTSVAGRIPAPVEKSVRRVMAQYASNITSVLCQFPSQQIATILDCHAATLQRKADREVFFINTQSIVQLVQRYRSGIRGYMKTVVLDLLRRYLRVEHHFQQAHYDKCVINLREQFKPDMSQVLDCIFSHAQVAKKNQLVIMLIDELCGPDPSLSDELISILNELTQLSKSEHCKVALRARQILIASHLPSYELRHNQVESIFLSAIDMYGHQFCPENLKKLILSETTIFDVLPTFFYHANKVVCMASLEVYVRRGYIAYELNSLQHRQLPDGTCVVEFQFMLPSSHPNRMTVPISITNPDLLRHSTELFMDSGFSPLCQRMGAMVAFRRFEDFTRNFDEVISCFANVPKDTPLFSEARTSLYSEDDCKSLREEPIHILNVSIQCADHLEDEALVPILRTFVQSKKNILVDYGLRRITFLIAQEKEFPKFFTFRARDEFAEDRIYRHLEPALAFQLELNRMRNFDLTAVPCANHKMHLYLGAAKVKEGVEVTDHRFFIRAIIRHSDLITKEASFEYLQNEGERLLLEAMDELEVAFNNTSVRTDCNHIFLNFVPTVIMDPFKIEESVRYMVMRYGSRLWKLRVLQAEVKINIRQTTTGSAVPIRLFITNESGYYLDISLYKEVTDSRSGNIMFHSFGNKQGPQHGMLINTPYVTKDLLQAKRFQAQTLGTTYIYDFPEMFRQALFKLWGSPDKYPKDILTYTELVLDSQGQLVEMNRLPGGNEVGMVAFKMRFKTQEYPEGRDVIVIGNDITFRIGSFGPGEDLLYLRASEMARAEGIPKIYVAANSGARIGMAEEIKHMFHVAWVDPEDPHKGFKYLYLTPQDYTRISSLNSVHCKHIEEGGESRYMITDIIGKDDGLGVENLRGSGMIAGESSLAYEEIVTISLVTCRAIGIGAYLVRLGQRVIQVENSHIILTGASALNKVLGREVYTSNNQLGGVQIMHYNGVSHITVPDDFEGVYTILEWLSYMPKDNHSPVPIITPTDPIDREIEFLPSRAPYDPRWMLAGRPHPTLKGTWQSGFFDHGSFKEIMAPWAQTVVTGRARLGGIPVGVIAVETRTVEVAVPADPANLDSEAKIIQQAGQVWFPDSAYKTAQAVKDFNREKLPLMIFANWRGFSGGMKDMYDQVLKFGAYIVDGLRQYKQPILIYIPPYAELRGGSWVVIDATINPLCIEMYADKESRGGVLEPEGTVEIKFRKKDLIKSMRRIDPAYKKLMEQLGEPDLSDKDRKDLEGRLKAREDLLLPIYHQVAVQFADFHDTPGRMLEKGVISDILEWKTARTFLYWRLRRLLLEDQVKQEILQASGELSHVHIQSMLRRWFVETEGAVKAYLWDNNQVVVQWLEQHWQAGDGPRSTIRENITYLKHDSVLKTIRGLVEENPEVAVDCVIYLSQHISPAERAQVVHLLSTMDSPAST
Nature of the assay: ACC2 assay, spectrophotometric 384 well assay (NADH-linked, coupled lactate dehydrogenase/pyruvate kinase). The class given is biochemical. The note with it: ACC2 assay, hACC2 construct lacking 128 N-terminal amino acids, 25° C., 340 nm; read-out: IC50. As for the experimental part:
Spectrophotometric 384 Well Assay
Malonyl CoA formation by acetyl CoA carboxylases is stoichometrically linked to the consumption of ATP. ACC2 activity is measured in a NADH-linked kinetic method measuring ADP generated during the ACC reaction using a coupled lactate dehydrogenase/pyruvate kinase reaction.
For biological testing, a human ACC2 construct which lacks the 128 amino acids at the N-terminus for increased solubility (nt 385-6966 in Genbank entry AJ575592) is cloned. The protein is then expressed in insect cells using a baculoviral expression system. Protein purification is performed by anion exchange.
All compounds are dissolved in dimethyl sulfoxide (DMSO) to a concentration of 10 mM.
Assay reactions are then carried out in 384-well plates, with hACC2 in an appropriate dilution and at final assay concentrations (f.c.) of 100 mM Tris (pH 7.5), 10 mM trisodium citrate, 25 mM KHCO3, 10 mM MgCl2, 0.5 mg/mL BSA, 3.75 mM reduced L-glutathione, 15 U/mL lactate dehydrogenase, 0.5 mM phosphoenolpyruvate, 15 U/mL pyruvate kinase, compounds at different concentrations at final DMSO concentrations of 1%.
The enzymatic reaction is then started by addition of a mixture of NADH, acetyl Coenzyme A (both 200 μM f.c.) and ATP (500 uM f.c.). The decrease of the optical density (slope S) is then determined at 25° C. at a wavelength of 340 nm over 15 minutes in a spectrophotometric reader.
Each assay microtiter plate contains wells with vehicle instead of compound as controls for the non-inhibited enzyme (100% CTL; ‘HIGH’) and wells without acetyl-CoA as controls for non-specific NADH degradation (0% CTL; ‘LOW’).
The slope S is used for calculation of % CTL=(S(compound)−S('LOW'))/(S('HIGH')−S('LOW'))*100. Compounds will give values between 100% CTL (no inhibition) and 0% CTL (complete inhibition).
For IC50 value determination, the sample slope in the presence of the test compound after subtraction of the low controls (S(compound)−S('LOW')) are used.
An IC50 value is derived from the compound slopes at different dosages after subtraction of the low controls (S(compound)−S('LOW')) by non-linear regression curve fitting (equation y=(A+((B−A)/(1+((C/x)^D))))).
As for `CCOc1ccc(N2CCC(c3ccc([C@H](C)NC(C)=O)cc3)CC2)cc1` [Example 1.1, (S)—N-(1-{4-[1-(4-Ethoxy-phenyl)-piperidin-4-yl]-phenyl}-ethyl)-acetamide], the half-maximal inhibitory concentration (IC50) turned out to be 130 nM.

In the case of `CC(=O)N[C@@H](C)c1ccc(C2CCN(c3ccc(OC4CCCC4)cc3)CC2)cc1` [Example 1.2], the IC50 was 50 nM.

As for `CCCCOc1ccc(N2CCC(c3ccc([C@H](C)NC(C)=O)cc3)CC2)cc1` [Example 1.3], the IC50 turned out to be 90 nM.

Take `CCOc1ccc(N2CCC(c3ccc([C@H](C)NC(C)=O)cc3)CC2)cn1` [Example 1.4]: the 50% inhibitory concentration (IC50) turned out to be 320 nM. In the case of `CCOc1ccc(N2CCC(c3ccc([C@H](C)NC(=O)OC)cc3)CC2)cc1` [Example 1.5], the concentration for half-maximal inhibition (IC50) is 350 nM. As for `CCC(C)Oc1ccc(N2CCC(c3ccc([C@H](C)NC(=O)N(C)C)cc3)CC2)cc1` (stereo partly drawn) [Example 1.7], the IC50 amounted to 140 nM.

`CCCOc1ccc(N2CCC(c3ccc([C@H](C)NC(=O)N(C)C)cc3)CC2)cc1` [Example 1.8]: the IC50 is 120 nM. As for `C[C@H](NC(=O)C1CC1)c1ccc(C2CCN(c3ccc(OC4CCC4)cc3)CC2)cc1` [Example 1.9], the IC50 was 50 nM. As to `CCC(C)Oc1ccc(N2CCC(c3ccc([C@H](C)NC(=O)C4CC4)cc3)CC2)cc1` (stereo partly drawn) [Example 1.10], the half-maximal inhibitory concentration (IC50) is 220 nM. With `CCOc1cc(N2CCC(c3ccc([C@H](C)NC(=O)OC)cc3)CC2)ccn1` [Example 1.11], the 50% inhibitory concentration (IC50) came out at 300 nM. Next, `COC(=O)N[C@@H](C)c1ccc(C2CCN(c3ccc(OC4CCC4)cc3)CC2)cc1` [Example 1.12]: 80 nM; `CCCOc1ccc(N2CCC(c3ccc([C@H](C)NC(=O)OC)cc3)CC2)cc1` [Example 1.13]: 100 nM. With `C[C@H](NC(=O)C1CC1)c1ccc(C2CCN(c3ccc(OC4CC4)cc3)CC2)cc1` [Example 1.14], the IC50 turned out to be 100 nM. As to `CCC(C)Oc1ccc(N2CCC(c3ccc([C@H](C)NC(=O)OC)cc3)CC2)cc1` (stereo partly drawn) [Example 1.15], the IC50 came out at 240 nM.

For `C[C@H](NC(=O)C1CC1)c1ccc(C2CCN(c3ccc(OCC4CC4)cc3)CC2)cc1` [Example 1.16], the IC50 was 90 nM.

As to `COC(=O)N[C@@H](C)c1ccc(C2CCN(c3ccc4c(c3)OCCO4)CC2)cc1` [Example 1.17], the IC50 is 450 nM.

For `C[C@H](NC(=O)C1CC1)c1ccc(C2CCN(c3ccc4c(c3)OCCO4)CC2)cc1` [Example 1.19], the IC50 turned out to be 260 nM. On to `CCOc1cc(N2CCC(c3ccc([C@H](C)NC(=O)C4CC4)cc3)CC2)ccn1` [Example 1.20], for which the IC50 worked out at 290 nM. As to `C[C@H](NC(=O)N(C)C)c1ccc(C2CCN(c3ccc(OC4CCC4)cc3)CC2)cc1` [Example 1.21], the IC50 is 80 nM. As for `COC(=O)N[C@@H](C)c1ccc(C2CCN(c3ccc(OCC4CC4)cc3)CC2)cc1` [Example 1.22], the IC50 was 140 nM. Consider `CCCOc1ccc(N2CCC(c3ccc([C@H](C)NC(=O)C4CC4)cc3)CC2)cc1` [Example 1.23], for which the IC50 was determined as 50 nM.

For `C[C@H](NC(=O)N(C)C)c1ccc(C2CCN(c3ccc(OCC4CC4)cc3)CC2)cc1` [Example 1.24], the IC50 was 210 nM. In the case of `CCOc1ccc(N2CCC(c3ccc([C@H](C)NC(=O)C4CC4)cc3)CC2)cc1` [Example 1.25], the IC50 was determined as 150 nM. For `CC(=O)N[C@@H](C)c1ccc(C2CCN(c3cccc(O)c3)CC2)cc1` [Example 1.27, (S)—N-{1-(4-[1-(3-hydroxyphenyl)-piperidin-4-yl]-phenyl}-ethyl)-acetamide] the value was 5800 nM; for `CCC(C)Oc1ccc(N2CCC(c3ccc([C@H](C)NC(C)=O)cc3)CC2)cc1` (stereo partly drawn) [Example 1.29], 80 nM; for `COc1ccc(N2CCC(c3ccc([C@H](C)NC(C)=O)cc3)CC2)cc1` [Example 1.30], 230 nM. Regarding `CCCOc1ccc(N2CCC(c3ccc([C@H](C)NC(C)=O)cc3)CC2)c(OC)c1` [Example 1.31], the half-inhibitory concentration (IC50) came to 180 nM. Next, `CCCOc1ccc(N2CCC(c3ccc([C@H](C)NC(C)=O)cc3)CC2)c(C)c1` [Example 1.32]: 90 nM; `CCCOc1ccc(N2CCC(c3ccc([C@H](C)NC(C)=O)cc3)CC2)c(Cl)c1` [Example 1.33]: 120 nM; `COc1ccc(N2CCC(c3ccc([C@H](C)NC(C)=O)cc3)CC2)c(C#N)c1` [Example 1.34]: 260 nM. As to `COc1cc(OC(C)C)ccc1N1CCC(c2ccc([C@H](C)NC(C)=O)cc2)CC1` [Example 1.35], the IC50 turned out to be 320 nM. Take `COc1cc(OCC2CC2)ccc1N1CCC(c2ccc([C@H](C)NC(C)=O)cc2)CC1` [Example 1.36]: the IC50 turned out to be 410 nM. As for `COc1cc(OC2CCC2)ccc1N1CCC(c2ccc([C@H](C)NC(C)=O)cc2)CC1` [Example 1.37], the half-inhibitory concentration (IC50) was 110 nM.

With `CCC(C)Oc1ccc(N2CCC(c3ccc([C@H](C)NC(C)=O)cc3)CC2)c(OC)c1` (stereo partly drawn) [Example 1.39], the IC50 amounted to 130 nM. `CC(=O)N[C@@H](C)c1ccc(C2CCN(c3ccc4c(c3)OCCO4)CC2)cc1` [Example 1.40]: the IC50 was 140 nM.

On to `COc1ccc(N2CCC(c3ccc([C@H](C)NC(C)=O)cc3)CC2)c(OC)c1` [Example 1.41], for which the IC50 was determined as 320 nM. For `CCOc1ccc(N2CCC(c3ccc([C@H](C)NC(C)=O)cc3)CC2)c(OCC)c1` [Example 1.42], the IC50 came out at 630 nM.

For `COc1ccc(N2CCC(c3ccc([C@H](C)NC(C)=O)cc3)CC2)cc1OC` [Example 1.43], the IC50 amounted to 4100 nM. With `CC(=O)N[C@@H](C)c1ccc(C2CCN(c3ccc4c(c3)OCCCO4)CC2)cc1` [Example 1.44], the IC50 was found to be 180 nM.

With `CC(=O)N[C@@H](C)c1ccc(C2CCN(c3ccccc3)CC2)cc1` [Example 1.45], the IC50 is 370 nM. Take `CC(=O)N[C@@H](C)c1ccc(C2CCN(c3ccc(Cl)cc3)CC2)cc1` [Example 1.46]: the IC50 is 700 nM. As to `CCOc1ccc(N2CCC(c3ccc([C@H](C)NC(C)=O)cc3)CC2)cc1OCC` [Example 1.47], the IC50 stood at 2900 nM.

In the case of `CC(=O)N[C@@H](C)c1ccc(C2CCN(c3ccc(O)cc3)CC2)cc1` [Example 1.48, (S)—N-{1-(4-[1-(4-Hydroxyphenyl)-piperidin-4-yl]-phenyl}-ethyl)-acetamide], the IC50 is 11300 nM. In the case of `CC(=O)N[C@@H](C)c1ccc(C2CCN(c3ccc(OC(C)C)cc3C#N)CC2)cc1` [Example 1.50], the IC50 worked out at 120 nM.

As for `CC(=O)N[C@@H](C)c1ccc(C2CCN(c3ccc(OC4CCC4)cc3C#N)CC2)cc1` [Example 1.51], the IC50 stood at 90 nM. As to `CC(=O)N[C@@H](C)c1ccc(C2CCN(c3ccc(C(C)C)cc3)CC2)cc1` [Example 1.52], the IC50 was determined as 110 nM.

`COc1ccc(N2CCC(c3ccc([C@H](C)NC(C)=O)cc3)CC2)cn1` [Example 1.53]: the IC50 stood at 820 nM. `CC(=O)N[C@@H](C)c1ccc(C2CCN(c3ccc(OCc4ccccc4)nc3)CC2)cc1` [Example 1.54]: the IC50 was 130 nM. For `CCCOc1ccc(N2CCC(c3ccc([C@H](C)NC(C)=O)cc3)CC2)cn1` [Example 1.55] the value was 240 nM.

On to `COc1cc(C)c(N2CCC(c3ccc([C@H](C)NC(C)=O)cc3)CC2)cn1` [Example 1.56], for which the half-maximal inhibitory concentration (IC50) turned out to be 720 nM. On to `Cc1cc(OC2CC2)ccc1N1CCC(c2ccc([C@H](C)NC(=O)N(C)C)cc2)CC1` [Example 1.57], for which the IC50 was found to be 100 nM.

As a reminder, the IC50 is the point on the concentration scale where inhibition reaches its midpoint.
